Measurements from the supplement of paper PMC4862054.

Legend:
Details in all cases: incubation time: 72 h
DU-4475 [1] = test: normalised viability (% of control), CellTiter-Blue; higher = more viable cells (about 100 = DMSO control)
Protocol: (§1)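 DSRT, CellTiter-Blue viability, 72 h incubation. Signal is normalised to DMSO and benzethonium chloride controls. Value is the normalised response at dose 9.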

MDA-MB-453 [2] = test: as above
Protocol: as §1

CAL-148 [3] = test: as above
Protocol: as §1

HDQ-P1 [4] = test: as above
Protocol: as §1

CAL-85-1 [5] = test: as above
Protocol: as §1

CAL-51 [6] = test: as above
Protocol: as §1

DU-4475 [7] = test: normalised viability (% of control), CellTiter-Blue; higher = more viable cells (100 = DMSO, 0 = benzethonium chloride kill control)
Protocol: (§2)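 DSRT, CellTiter-Blue viability, 72 h incubation. Signal is normalised to DMSO and benzethonium chloride controls. Value is the normalised response at dose 1.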

CAL-120 = test: as above
Protocol: as §2

HCC1937 = test: as above
Protocol: as §2

SK-BR-3 = test: as above
Protocol: as §2

MDA-MB-453 [8] = test: as above
Protocol: as §2

MDA-MB-231 = test: as above
Protocol: as §2

HCC1599 = test: as above
Protocol: as §2

HCC1143 = test: as above
Protocol: as §2

MDA-MB-436 = test: as above
Protocol: as §2

CAL-148 [9] = test: as above
Protocol: as §2

BT-474 = test: as above
Protocol: as §2

MDA-MB-468 = test: as above
Protocol: as §2

HDQ-P1 [10] = test: as above
Protocol: as §2

CAL-85-1 [11] = test: as above
Protocol: as §2

Hs578T = test: as above
Protocol: as §2

BT-549 = test: as above
Protocol: as §2

MFM-223 = test: as above
Protocol: as §2

CAL-51 [12] = test: as above
Protocol: as §2

DU-4475 [13] = test: normalised viability (% of control), CellTiter-Blue; higher = more viable cells (about 100 = DMSO control); remark: listed apart in the source
Protocol: (§3)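 DSRT, CellTiter-Blue viability, 72 h incubation. Signal is normalised to DMSO and benzethonium chloride controls. Value is the normalised response at dose 8.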

MDA-MB-453 [14] = test: as above; remark: listed apart in the source
Protocol: as §3

CAL-148 [15] = test: as above; remark: listed apart in the source
Protocol: as §3

HDQ-P1 [16] = test: as above; remark: listed apart in the source
Protocol: as §3

CAL-85-1 [17] = test: as above; remark: listed apart in the source
Protocol: as §3

CAL-51 [18] = test: as above; remark: listed apart in the source
Protocol: as §3

Structure (SMILES) | normalised viability (DU-4475 [1]) | normalised viability (MDA-MB-453 [2]) | normalised viability (CAL-148 [3]) | normalised viability (HDQ-P1 [4]) | normalised viability (CAL-85-1 [5]) | normalised viability (CAL-51 [6]) | normalised viability (DU-4475 [13]) | normalised viability (MDA-MB-453 [14]) | normalised viability (CAL-148 [15]) | normalised viability (HDQ-P1 [16]) | normalised viability (CAL-85-1 [17]) | normalised viability (CAL-51 [18]) | also measured
CC(=O)Nc1ccc(C(=O)Nc2ccccc2N)cc1 [CI-994] (1000 nM) | 80.7% | 101% | 96.2% | 108% | 98.5% | 95.3% |  |  |  |  |  |  | 
C[C@@H](Oc1cc(-c2cnn(C3CCNCC3)c2)cnc1N)c1c(Cl)ccc(F)c1Cl [Crizotinib] (10000 nM) | 11.7% | 24.9% | 48.6% | 39.6% | 39.5% | 31.2% |  |  |  |  |  |  | 
CC(C)Cn1cnc2c(N)nc3ccccc3c21 [Imiquimod] (1 nM) |  |  |  |  |  |  |  |  |  |  |  |  | normalised viability (DU-4475 [7]): 110%; normalised viability (CAL-120): 92.5%; normalised viability (HCC1937): 118%; normalised viability (SK-BR-3): 89.5%; normalised viability (MDA-MB-453 [8]): 108%; normalised viability (MDA-MB-231): 85.8%; normalised viability (HCC1599): 109%; normalised viability (HCC1143): 101%; normalised viability (MDA-MB-436): 107%; normalised viability (CAL-148 [9]): 98.1%; normalised viability (BT-474): 90.6%; normalised viability (MDA-MB-468): 109%; normalised viability (HDQ-P1 [10]): 104%; normalised viability (CAL-85-1 [11]): 108%; normalised viability (Hs578T): 107%; normalised viability (BT-549): 105%; normalised viability (MFM-223): 97%; normalised viability (CAL-51 [12]): 101%
CC(C)Cn1cnc2c(N)nc3ccccc3c21 [Imiquimod] (10000 nM) | 109% | 75.2% | 99% | 105% | 100% | 92% |  |  |  |  |  |  | 
CC(=O)Nc1ccc(C(=O)Nc2ccccc2N)cc1 [CI-994] (0.1 nM) |  |  |  |  |  |  |  |  |  |  |  |  | normalised viability (DU-4475 [7]): 93.2%; normalised viability (CAL-120): 110%; normalised viability (HCC1937): 102%; normalised viability (SK-BR-3): 95.5%; normalised viability (MDA-MB-453 [8]): 101%; normalised viability (MDA-MB-231): 91.9%; normalised viability (HCC1599): 92.6%; normalised viability (HCC1143): 105%; normalised viability (MDA-MB-436): 91.2%; normalised viability (CAL-148 [9]): 100%; normalised viability (BT-474): 86.4%; normalised viability (MDA-MB-468): 98.9%; normalised viability (HDQ-P1 [10]): 107%; normalised viability (CAL-85-1 [11]): 98.3%; normalised viability (Hs578T): 117%; normalised viability (BT-549): 92.6%; normalised viability (MFM-223): 105%; normalised viability (CAL-51 [12]): 89.6%
NC(=O)Nc1cc(-c2cccc(F)c2)sc1C(=O)N[C@H]1CCCNC1 [AZD 7762] (1000 nM) | 0.66% | 19.6% | 21.4% | 18% | 22.8% | 8.63% |  |  |  |  |  |  | 
NCC(=O)CCC(=O)O [Aminolevulinic acid] (1 nM) |  |  |  |  |  |  |  |  |  |  |  |  | normalised viability (DU-4475 [7]): 107%; normalised viability (CAL-120): 86.6%; normalised viability (HCC1937): 79.4%; normalised viability (SK-BR-3): 89%; normalised viability (MDA-MB-453 [8]): 98.8%; normalised viability (MDA-MB-231): 118%; normalised viability (HCC1599): 85%; normalised viability (HCC1143): 91.7%; normalised viability (MDA-MB-436): 105%; normalised viability (CAL-148 [9]): 109%; normalised viability (BT-474): 108%; normalised viability (MDA-MB-468): 103%; normalised viability (HDQ-P1 [10]): 110%; normalised viability (CAL-85-1 [11]): 99.4%; normalised viability (Hs578T): 104%; normalised viability (BT-549): 91.1%; normalised viability (MFM-223): 96.5%; normalised viability (CAL-51 [12]): 107%
Cc1ccc(C(=O)N(CCCN)[C@@H](c2oc3cc(Cl)ccc3c(=O)c2Cc2ccccc2)C(C)C)cc1 (1000 nM) | 7.45% | 24.6% | 17.6% | 72.4% | 32.5% | 18.8% |  |  |  |  |  |  | 
O=P1(NCCCl)OCCCN1CCCl (stereo not given) [Ifosfamide] (3000 nM) |  |  |  |  |  |  | 87.2% | 112% | 106% | 107% | 92.9% | 97.4% | 
CCC1=C[C@@H]2CN(C1)Cc1c([nH]c3ccccc13)[C@@](C(=O)OC)(c1cc3c(cc1OC)N(C)[C@H]1[C@@](O)(C(=O)OC)[C@H](OC(C)=O)[C@]4(CC)C=CCN5CC[C@]31[C@@H]54)C2 [Vinorelbine] (3000 nM) |  |  |  |  |  |  | 15.8% | 39.8% | 20.1% | 32.7% | 37.1% | 16.6% | 
CCN(CCCOc1ccc2c(Nc3cc(CC(=O)Nc4cccc(F)c4)[nH]n3)ncnc2c1)CCOP(=O)(O)O [Barasertib] (0.1 nM) |  |  |  |  |  |  |  |  |  |  |  |  | normalised viability (DU-4475 [7]): 123%; normalised viability (CAL-120): 95.5%; normalised viability (HCC1937): 104%; normalised viability (SK-BR-3): 108%; normalised viability (MDA-MB-453 [8]): 93.3%; normalised viability (MDA-MB-231): 113%; normalised viability (HCC1599): 105%; normalised viability (HCC1143): 107%; normalised viability (MDA-MB-436): 118%; normalised viability (CAL-148 [9]): 105%; normalised viability (BT-474): 109%; normalised viability (MDA-MB-468): 112%; normalised viability (HDQ-P1 [10]): 96.5%; normalised viability (CAL-85-1 [11]): 105%; normalised viability (Hs578T): 135%; normalised viability (BT-549): 103%; normalised viability (MFM-223): 102%; normalised viability (CAL-51 [12]): 95.4%
NC(=O)Nc1cc(-c2cccc(F)c2)sc1C(=O)N[C@H]1CCCNC1 [AZD 7762] (0.1 nM) |  |  |  |  |  |  |  |  |  |  |  |  | normalised viability (DU-4475 [7]): 101%; normalised viability (CAL-120): 102%; normalised viability (HCC1937): 119%; normalised viability (SK-BR-3): 102%; normalised viability (MDA-MB-453 [8]): 117%; normalised viability (MDA-MB-231): 115%; normalised viability (HCC1599): 89%; normalised viability (HCC1143): 115%; normalised viability (MDA-MB-436): 115%; normalised viability (CAL-148 [9]): 104%; normalised viability (BT-474): 115%; normalised viability (MDA-MB-468): 111%; normalised viability (HDQ-P1 [10]): 132%; normalised viability (CAL-85-1 [11]): 107%; normalised viability (Hs578T): 124%; normalised viability (BT-549): 108%; normalised viability (MFM-223): 108%; normalised viability (CAL-51 [12]): 101%
CNCc1ccc(-c2[nH]c3cc(F)cc4c3c2CCNC4=O)cc1 [Rucaparib] (3000 nM) |  |  |  |  |  |  | 87.3% | 87.5% | 87% | 82.9% | 79.3% | 102% | 
N.N.[Cl][Pt][Cl] [Cisplatin] (10000 nM) | 112% | 97.4% | 105% | 110% | 99.5% | 105% |  |  |  |  |  |  | 
C[C@]12CC[C@@H]3c4ccc(O)cc4C[C@@H](CCCCCCCCC[S+]([O-])CCCC(F)(F)C(F)(F)F)[C@H]3[C@@H]1CC[C@@H]2O (stereo not given in full) [Fulvestrant] (10000 nM) | 115% | 66.8% | 102% | 113% | 99.3% | 101% |  |  |  |  |  |  | 
C#Cc1cccc(Nc2ncnc3cc(OCCOC)c(OCCOC)cc23)c1 [Erlotinib] (3000 nM) |  |  |  |  |  |  | 108% | 73.5% | 66.9% | 75.4% | 49.8% | 95.9% | 
NCC(=O)CCC(=O)O [Aminolevulinic acid] (10000 nM) | 111% | 87.7% | 104% | 106% | 76.9% | 83.2% |  |  |  |  |  |  | 
Cc1ccc(C(=O)Nc2ccc(CN3CCN(C)CC3)c(C(F)(F)F)c2)cc1C#Cc1cnc2cccnn12 [Ponatinib] (300 nM) |  |  |  |  |  |  | 73.8% | 54.3% | 87.7% | 58.9% | 80.5% | 73.9% | 
Cn1c(CCCC(=O)O)nc2cc(N(CCCl)CCCl)ccc21 [Bendamustine] (3000 nM) |  |  |  |  |  |  | 105% | 113% | 101% | 101% | 93.8% | 112% | 
Cc1ccc(C(=O)N(CCCN)[C@@H](c2oc3cc(Cl)ccc3c(=O)c2Cc2ccccc2)C(C)C)cc1 (300 nM) |  |  |  |  |  |  | 31.2% | 24.8% | 16.8% | 62.6% | 32.4% | 26.7% | 
CN[C@@H]1C[C@H]2O[C@@](C)([C@@H]1OC)n1c3ccccc3c3c4c(c5c6ccccc6n2c5c31)C(=O)N[C@H]4O [UCN-01] (3000 nM) |  |  |  |  |  |  | 1.19% | 20.2% | 41.7% | 10.2% | 6.08% | 6.6% | 
CCC1(c2ccc(N)cc2)CCC(=O)NC1=O (stereo not given) [Aminoglutethimide] (3000 nM) |  |  |  |  |  |  | 103% | 82.6% | 105% | 92.5% | 90.1% | 85.1% | 
CC1(C)NC(=O)N(c2ccc([N+](=O)[O-])c(C(F)(F)F)c2)C1=O [Nilutamide] (3000 nM) |  |  |  |  |  |  | 106% | 99% | 99.1% | 127% | 96.8% | 96.9% | 
CCN(CCCOc1ccc2c(Nc3cc(CC(=O)Nc4cccc(F)c4)[nH]n3)ncnc2c1)CCOP(=O)(O)O [Barasertib] (1000 nM) | 40.8% | 44.1% | 26.3% | 96.2% | 81.2% | 42% |  |  |  |  |  |  | 
C[C@@H](Oc1cc(-c2cnn(C3CCNCC3)c2)cnc1N)c1c(Cl)ccc(F)c1Cl [Crizotinib] (3000 nM) |  |  |  |  |  |  | 78.7% | 57.3% | 76.8% | 86.7% | 66.1% | 62.9% | 
